Read-outs that look alike come from different tables or passages of the source.
Molecular target: Human Factor D (Homo sapiens (Human), UniProt P00746)
Assay: Human Factor D Assay
Assay type: biochemical
Procedure, shortened: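 IC50 values derive from nonlinear regression of Factor D reaction rates against compound concentration. The enzyme, purified from human serum, is used at 80 nM final with a 5 min room-temperature compound preincubation in 50 mM Tris, 1M NaCl, pH 7.5, before 100 μM Z-L-Lys-SBzl plus 100 μM DTNB are added.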

[1] = Table 3, Human Factor D 80 nM, substrate Z-L-Lys-SBzl, read-out: IC50 (Stars)

Sequence of Human Factor D (P00746 26-253): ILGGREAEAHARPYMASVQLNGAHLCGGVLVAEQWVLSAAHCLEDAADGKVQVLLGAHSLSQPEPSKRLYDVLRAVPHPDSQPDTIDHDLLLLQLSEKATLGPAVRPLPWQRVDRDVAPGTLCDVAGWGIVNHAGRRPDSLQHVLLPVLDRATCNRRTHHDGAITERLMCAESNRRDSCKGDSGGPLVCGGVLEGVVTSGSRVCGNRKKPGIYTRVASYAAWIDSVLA

| SMILES | IC50 [1] [µM] | IC50 [µM] |
| --- | --- | --- |
| Cc1cccc(NC(=O)[C@@H]2[C@H]3CC[C@H](C3)N2C(=O)Cn2cc(C(N)=O)c3cc(-c4cccc(C#N)c4)ccc32)n1 [Compound 497, 5-(3-Cyanophenyl)-1-(2-((1R,3S,4S)-3-(6-methylpyridin-2-ylcarbamoyl)-2-azabicyclo[2.2.1]heptan-2-yl)-2-oxoethyl)-1H-indole-3-carboxamide] | > 10 |  |
| Cc1cccc(NC(=O)[C@@H]2[C@H]3CC[C@H](C3)N2C(=O)Cn2cc(C(N)=O)c3cc(-c4ccc(N)nc4)ccc32)n1 [Compound 498, 5-(6-Aminopyridin-3-yl)-1-(2-((1R,3S,4S)-3-(6-methylpyridin-2-ylcarbamoyl)-2-azabicyclo[2.2.1]heptan-2-yl)-2-oxoethyl)-1H-indole-3-carboxamide] | > 10 |  |
| Cc1cccc(NC(=O)[C@@H]2[C@H]3CC[C@H](C3)N2C(=O)Cn2cc(C(N)=O)c3cc(-c4ccc5cccnc5c4)ccc32)n1 [Compound 499, 1-(2-((1R,3S,4S)-3-(6-Methylpyridin-2-ylcarbamoyl)-2-azabicyclo[2.2.1]heptan-2-yl)-2-oxoethyl)-5-(quinolin-7-yl)-1H-indole-3-carboxamide] |  | 1 to 10 |
| Cc1cccc(NC(=O)[C@@H]2[C@H]3CC[C@H](C3)N2C(=O)Cn2cc(C(N)=O)c3cc(-c4ccc(F)nc4)ccc32)n1 [Compound 500, 5-(6-Fluoropyridin-3-yl)-1-(2-((1R,3S,4S)-3-(6-methylpyridin-2-ylcarbamoyl)-2-azabicyclo[2.2.1]heptan-2-yl)-2-oxoethyl)-1H-indole-3-carboxamide] |  | > 10 |
| Cc1cccc(NC(=O)[C@@H]2[C@H]3CC[C@H](C3)N2C(=O)Cn2cc(C(N)=O)c3cc(-c4cccnc4)ccc32)n1 [Compound 501, 1-(2-((1R,3S,4S)-3-(6-Methylpyridin-2-ylcarbamoyl)-2-azabicyclo[2.2.1]heptan-2-yl)-2-oxoethyl)-5-(pyridin-3-yl)-1H-indole-3-carboxamide] | > 10 |  |
| CC(=O)c1nn(CC(=O)N2C[C@H](F)C[C@H]2C(=O)NC/C(F)=C(/C)c2cccc(Cl)c2)c2ccc(-c3cnc(C)nc3)cc12 [Compound 503, (2S,4R)-1-(2-(3-acetyl-5-(2-methylpyrimidin-5-yl)-1H-indazol-1-yl)acetyl)-N-((E)-3-(3-chlorophenyl)-2-fluorobut-2-en-1-yl)-4-fluoropyrrolidine-2-carboxamide] | < 1 |  |
| CC(=O)c1nn(CC(=O)N2C[C@H](F)C[C@H]2C(=O)Nc2cccc(Br)n2)c2ccc(-c3ccc4ncncc4c3)cc12 [Compound 504, (2S,4R)-1-(2-(3-Acetyl-5-(quinazolin-6-yl)-1H-indazol-1-yl)acetyl)-N-(6-bromopyridin-2-yl)-4-fluoropyrrolidine-2-carboxamide] | < 1 |  |
| CC(=O)c1nn(CC(=O)N2C[C@H](F)C[C@H]2C(=O)Nc2cccc(Br)n2)c2ccc(-c3cnc(OCC(F)(F)F)nc3)cc12 [Compound 505, (2S,4R)-1-(2-(3-Acetyl-5-(2-(S2,2,2-trifluoroethoxy)pyrimidin-5-yl)-1H-indazol-1-yl)acetyl)-N-(6-bromopyridin-2-yl)-4-fluoropyrrolidine-2-carboxamide] | < 1 |  |
| CC(=O)c1nn(CC(=O)N2[C@@H]3C[C@@H]3C[C@H]2C(=O)NC/C(F)=C(/C)c2cccc(Cl)c2)c2ccc(-c3cnc(C)nc3)cc12 [Compound 506, (1R,3S,5R)-2-(2-(3-Acetyl-5-(2-methylpyrimidin-5-yl)-1H-indazol-1-yl)acetyl)-N-((E)-3-(3-chlorophenyl)-2-fluorobut-2-en-1-yl)-2-azabicyclo[3.1.0]hexane-3-carboxamide] | < 1 |  |
| CC(=O)c1nn(CC(=O)N2C[C@H](F)C[C@H]2C(=O)Nc2cccc(Cl)c2)c2ccc(-c3cnc(C)nc3)cc12 [Compound 508, (2S,4R)-1-(2-(3-Acetyl-5-(2-methylpyrimidin-5-yl)-1H-indazol-1-yl)acetyl)-N-(3-chlorophenyl)-4-fluoropyrrolidine-2-carboxamide] | < 1 |  |
| CC(=O)c1nn(CC(=O)N2C[C@H](F)C[C@H]2C(=O)Nc2ccc(F)c(Br)c2)c2ccc(-c3cnc(C)nc3)cc12 [Compound 509, (2S,4R)-1-(2-(3-Acetyl-5-(2-methylpyrimidin-5-yl)-1H-indazol-1-yl)acetyl)-N-(3-bromo-4-fluorophenyl)-4-fluoropyrrolidine-2-carboxamide] | < 1 |  |
| CC(=O)c1nn(CC(=O)N2C[C@@](F)(CF)C[C@H]2C(=O)Nc2nc(Br)ccc2C)c2ccc(-c3cnc(C)nc3)cc12 [Compound 511, (2S,4R)-1-(2-(3-Acetyl-5-(2-methylpyrimidin-5-yl)-1H-indazol-1-yl)acetyl)-N-(6-bromo-3-methylpyridin-2-yl)-4-fluoro-4-(fluoromethyl)pyrrolidine-2-carboxamide] | < 1 |  |
| CC(=O)N[C@H]1[C@@H](C(=O)Nc2cccc(Br)n2)N(C(=O)Cn2nc(C(C)=O)c3cc(-c4cnc(C)nc4)ccc32)C[C@@H]1F [Compound 512, (2S,3S,4S)-3-Acetamido-1-(2-(3-acetyl-5-(2-methylpyrimidin-5-yl)-1H-indazol-1-yl)acetyl)-N-(6-bromopyridin-2-yl)-4-fluoropyrrolidine-2-carboxamide] | < 1 |  |
| CC(=O)N[C@@H]1CN(C(=O)Cn2nc(C(C)=O)c3cc(-c4cnc(C)nc4)ccc32)[C@H](C(=O)Nc2cccc(Br)n2)[C@H]1F [Compound 513, (2R,3S,4R)-4-Acetamido-1-(2-(3-acetyl-5-(2-methylpyrimidin-5-yl)-1H-indazol-1-yl)acetyl)-N-(6-bromopyridin-2-yl)-3-fluoropyrrolidine-2-carboxamide] | < 1 |  |
| CC(=O)c1nn(CC(=O)N2C[Si](C)(C)C[C@H]2C(=O)Nc2cccc(Br)n2)c2ccc(-c3cnc(C)nc3)cc12 [Compound 514, (R)-1-(2-(3-acetyl-5-(2-Methylpyrimidin-5-yl)-1H-indazol-1-yl)acetyl)-N-(6-bromopyridin-2-yl)-3,3-dimethyl-1,3-azasilolidine-5-carboxamide] |  | 1 to 10 |
| Cc1cccc(NC(=O)[C@@H]2[C@H]3CC[C@H](C3)N2C(=O)Cn2cc(C(N)=O)c3cc(-c4ccc5c(c4)CCCC5)ccc32)n1 [Compound 515, 1-(2-((1R,3S,4S)-3-(6-Methylpyridin-2-ylcarbamoyl)-2-azabicyclo[2.2.1]heptan-2-yl)-2-oxoethyl)-5-(5,6,7,8-tetrahydronaphthalen-2-yl)-1H-indole-3-carboxamide] | > 10 |  |
| CC(=O)c1nn(CC(=O)N2[C@@H]3C[C@@H]3C[C@H]2C(=O)NC/C(F)=C(\C)c2cccc(Cl)c2)c2ccc(-c3cnc(C)nc3)cc12 [Compound 516, (1R,3S,5R)-2-(2-(3-Acetyl-5-(2-methylpyrimidin-5-yl)-1H-indazol-1-yl)acetyl)-N—((Z)-3-(3-chlorophenyl)-2-fluorobut-2-en-1-yl)-2-azabicyclo[3.1.0]hexane-3-carboxamide] | < 1 |  |
| CC(=O)c1nn(CC(=O)N2C[C@H](F)C[C@H]2C(=O)Nc2nc(Br)c(F)cc2C)c2ccc(-c3cnc(C)nc3)cc12 [Compound 520, (2S,4R)-1-(2-(3-Acetyl-5-(2-methylpyrimidin-5-yl)-1H-indazol-1-yl)acetyl)-N-(6-bromo-5-fluoro-3-methylpyridin-2-yl)-4-fluoropyrrolidine-2-carboxamide] | < 1 |  |
| CC(=O)c1nn(CC(=O)N2C[C@H](F)C[C@H]2C(=O)Nc2cccc(Br)n2)c2ccc(-c3cnc(S(C)(=O)=O)nc3)cc12 [Compound 521, (2S,4R)-1-(2-(3-Acetyl-5-(2-(methylsulfonyl)pyrimidin-5-yl)-1H-indazol-1-yl)acetyl)-N-(6-bromopyridin-2-yl)-4-fluoropyrrolidine-2-carboxamide] | < 1 |  |
| CC(=O)c1nn(CC(=O)N2C[C@H](F)C[C@H]2C(=O)Nc2cccc(Br)n2)c2ccc(-c3cnc(-n4cccn4)nc3)cc12 [Compound 522, (2S,4R)-1-(2-(5-(2-(1H-Pyrazol-1-yl)pyrimidin-5-yl)-3-acetyl-1H-indazol-1-yl)acetyl)-N-(6-bromopyridin-2-yl)-4-fluoropyrrolidine-2-carboxamide] | < 1 |  |
| CC(=O)c1nn(CC(=O)N2[C@@H]3C[C@@H]3C[C@H]2C(=O)NC/C(F)=C(/C)c2ccccc2Cl)c2ccc(-c3cnc(C)nc3)cc12 [Compound 523] | < 1 |  |
| CC(=O)c1nn(CC(=O)N2[C@@H]3C[C@@H]3C[C@H]2C(=O)NC/C(F)=C(\C)c2ccccc2Cl)c2ccc(-c3cnc(C)nc3)cc12 [Compound 528] | < 1 |  |
| COC(=O)Cc1ncc(-c2ccc3c(c2)c(C(C)=O)nn3CC(=O)N2C[C@H](F)C[C@H]2C(=O)Nc2cccc(Br)n2)cn1 [Compound 529, methyl 2-(5-(3-acetyl-1-(2-((2S,4R)-2-((6-bromopyridin-2-yl)carbamoyl)-4-fluoropyrrolidin-1-yl)-2-oxoethyl)-1H-indazol-5-yl)pyrimidin-2-yl)acetate] | < 1 |  |
| CC(=O)c1nn(CC(=O)N2[C@@H](C)CC[C@H]2C(=O)Nc2cccc(Br)n2)c2ccc(-c3cnc(C)nc3)cc12 [Compound 530, (2S,5S)-1-(2-(3-Acetyl-5-(2-methylpyrimidin-5-yl)-1H-indazol-1-yl)acetyl)-N-(6-bromopyridin-2-yl)-5-methylpyrrolidine-2-carboxamide] | < 1 |  |
| CSc1ncc(-c2ccc3c(c2)c(C(C)=O)nn3CC(=O)N2C[C@H](F)C[C@H]2C(=O)Nc2cccc(Br)n2)cn1 [Compound 531, (2S,4R)-1-(2-(3-Acetyl-5-(2-(methylthio)pyrimidin-5-yl)-1H-indazol-1-yl)acetyl)-N-(6-bromopyridin-2-yl)-4-fluoropyrrolidine-2-carboxamide] | < 1 |  |
| CC(=O)c1nn(CC(=O)N2C[C@H](F)C[C@H]2C(=O)Nc2cccc(Br)n2)c2ccc(-c3cnc(CC(N)=O)nc3)cc12 [Compound 532, (2S,4R)-1-(2-(3-Acetyl-5-(2-(2-amino-2-oxoethyl)pyrimidin-5-yl)-1H-indazol-1-yl)acetyl)-N-(6-bromopyridin-2-yl)-4-fluoropyrrolidine-2-carboxamide] | < 1 |  |
